Patent publication US8022180B2, “Method for preventing and treating Alzheimer's disease” (Affiris Forschungs-und Entwicklungs GmbH, priority 2004, dated 2011)

Key:
[1] = system: DAEFRH (SEQ ID NO: 26)-specific mAb; assay: ELISA with peptide libraries (detection by biotinylated DAEFRH-specific mAb); type: binding, mice; conditions: mimotopes from libraries 1-3
From the text: (§1) Mice are vaccinated with the 6mer peptide DAEFRH (SEQ ID NO: 26) (natural N-terminal Aβ42 sequence) linked to the protein bovine serum albumin BSA (to make use of the hapten-carrier-effect), emulsified in CFA (first injection) and IFA (booster injections). DAEFRH (SEQ ID NO: 26)-peptide-specific, antibody-producing hybridomas are detected by ELISA (DAEFRH (SEQ ID NO: 26)-peptide-coated ELISA plates).
As mentioned above, peptide libraries 1, 2, and 3 are generated with an Applied Biosystems 431A peptide synthesizer following classical Fmoc-chemistry. The commercially available peptide library 4 is generated according to the manufacturer's description (see above and under www.mimotopes.com). The 90 peptides are C-terminally linked to a pin.
The ELISA with each of the peptide libraries have been carried out following standard protocols:
The peptide library is dissolved in 100% DMSO (final concentration 10 mg/ml).
The peptide solution is further diluted in PBS.
The peptide mixture is coated overnight (4° C.) onto ELISA plates (Nunc Maxisorp, Germany), starting with 500 μg/well, and titrated to 100 ng/well.
The plates are washed 3× times with PBS/Tween 20 (0.1% v/v).
The plates are blocked with PBS/BSA (2 h at room temperature).
The plates are washed 3× times with PBS/Tween.
The plates are incubated with biotinylated DAEFRH (SEQ ID NO: 26)-specific mAb (10 μg/ml in PBS) for 4 h at room temperature.
The plates are incubated with streptavidin-horseradish-peroxidase (30 min at room temperature).
The plates are washed 5× times with PBS/Tween.
The plates are incubated with ABTS+H2O2 (0.1% w/v; 10 to 45 min) and the reaction is stopped with citric acid followed by photometric evaluation (wavelength 405 nm).

[2] = system: monoclonal antibody specific for the natural N-terminal Aβ42 sequence DAEFRH; assay: Inhibition assay: mimotope peptides compete with plate-bound DAEFRH-BSA for recognition by the biotinylated monoclonal antibody (ELISA); type: binding, mice; design: key to inhibition (s/m/—): s: strong inhibition; m: moderate inhibition; —: no inhibition; conditions: for inhibition of epitope recognition by the monoclonal antibody (in words): FIGS. 2-9; for inhibition (s/m/—): peptides of the new screening round and 5mers with non natural amino acids; for Inhibitory capacity of mimotopes: summary Tables 1 and 2, in words
From the text: 1.: Generation of Monoclonal Antibodies (mAb) to Detect Aβ42-Derived Peptide Species with Free N-Terminus (Free Aspartic Acid at the N-Terminus)
as §1
(§2) FIGS. 2 and 3 describe the results of inhibition assays performed with mimotope peptides included in and obtained from the 5 libraries (as described). The mimotope peptides compete with the original epitope for recognition by the monoclonal antibody. Original epitope and mimotope peptides contain an additional C at the C-terminus for coupling to a protein carrier (if desired).
(§3) After blocking with PBS/BSA 1% (200 μl/well, 12 h, 4° C.), the plates are washed 3× times with PBS/Tween. Then, biotinylated monoclonal antibody (1:2000, 50 μl/well) and peptides (50 μl/well) at 50, 5, 0.5, 0.05, 0.005, and 0.0005 μg/ml are added for 20 min. at 37° C. The plates are washed 3× times with PBS/Tween and are incubated with horseradish peroxidase (HRP)-labeled streptavidin (100 μl/well, 30 min, RT). The plates are washed 5× times with PBS/Tween and are incubated with ABTS+H2O2 (0.1% w/v, 10 to 45 min) and the reaction is stopped with citric acid followed by photometric evaluation (wavelength 405 nm).
as §2, with “4” for “2”, “5” for “3”, “C-terminus (position 7)” for “C-terminus”
as §3, with “different concentrations” for “50, 5, 0.5, 0.05, 0.005, and 0.0005 μg/ml”
as §2, with “6 to 8” for “2 and 3”, “2” for “5”, “described above).” for “described).”, “C-terminus (position 7 or position 8, respectively)” for “C-terminus”

Substance	detection by the monoclonal antibody [1]	inhibition of epitope recognition by the monoclonal antibody (in words) [2]	inhibition (s/m/—) [2]	other results
DIDYHR	can be detected by the monoclonal antibody			
DIDYRR	can be detected by the monoclonal antibody			
DLDYHR	can be detected by the monoclonal antibody			
DLDYRR	can be detected by the monoclonal antibody			
DVDYHR	can be detected by the monoclonal antibody			
DVDYRR	can be detected by the monoclonal antibody			
EIDYHR	can be detected by the monoclonal antibody			
ELDYHR	can be detected by the monoclonal antibody			
EVDYHR	can be detected by the monoclonal antibody			
GSEFRDY [Peptide 4013]		moderately inhibit binding	m	
KKELRI [Peptide 1234]		hardly inhibitory at the concentrations tested		Inhibitory capacity of mimotopes [2]: none
SAEFRAT [Peptide 4016]		strongly block epitope recognition	s	
SAEFRTQ [Peptide 4015]		strongly block epitope recognition	s	
SWEFRLY [Peptide 4018]		strongly block epitope recognition	s	
SWEFRNP [Peptide 4017]		strongly block epitope recognition	s	
SWFRNP [Peptide 4019]		not inhibitory at the concentrations tested	—	
VPTSALA [Peptide 4037]		not inhibitory at the concentrations tested	—	
WHWSWR [Peptide 4004]		not able to inhibit binding		Inhibitory capacity of mimotopes [2]: none
YREFFI [Peptide 3003]		not able to inhibit binding		Inhibitory capacity of mimotopes [2]: none
YREFRI [Peptide 3004]		block epitope recognition		concentration at which the peptide is only inhibitory ([2]; only inhibitory at a (relatively) high concentration): 50 µg/mL; Inhibitory capacity of mimotopes [2]: weak
